One assay addresses T1, human GIPR (Homo sapiens, UniProt P48546).
T1 construct: expressed in transfected cells; crude membranes
T1 sequence (P48546 22-466): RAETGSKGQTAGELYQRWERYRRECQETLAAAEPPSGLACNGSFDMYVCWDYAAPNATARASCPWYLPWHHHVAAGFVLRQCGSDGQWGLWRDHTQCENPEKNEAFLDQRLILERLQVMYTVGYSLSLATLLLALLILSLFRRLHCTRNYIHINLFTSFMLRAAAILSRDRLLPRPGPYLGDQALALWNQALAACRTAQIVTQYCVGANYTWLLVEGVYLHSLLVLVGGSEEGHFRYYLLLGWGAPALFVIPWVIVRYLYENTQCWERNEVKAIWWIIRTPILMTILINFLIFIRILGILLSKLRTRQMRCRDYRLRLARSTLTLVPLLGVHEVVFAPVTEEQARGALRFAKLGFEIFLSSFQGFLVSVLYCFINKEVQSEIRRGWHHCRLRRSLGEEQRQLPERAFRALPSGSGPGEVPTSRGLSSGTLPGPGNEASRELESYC
The assay is described as follows: [125I]-GIP binding, SPA with WGA beads, 0.1% bacitracin. Particulars: geometric mean, read-out: hGIPR Ki. How it is done:
(§1) Stably transfected cell lines are prepared by subcloning receptor cDNA into a pcDNA3 expression plasmid and transfected into human embryonic kidney (HEK) 293 (hGcgR and hGLP-1R) or Chinese Hamster Ovary (CHO) (hGIPR) cells followed by selection with Geneticin (hGLP-1R and hGIPR) or hygromycin B (hGcgR).
(§2) Two methods are used for the preparation of crude cell membranes.
(§3) Method 1: Frozen cell pellets are lysed on ice in hypotonic buffer containing 50 mM Tris HCl, pH 7.5, and Roche Complete™ Protease Inhibitors with EDTA. The cell suspension is disrupted using a glass Potter-Elvehjem homogenizer fitted with a Teflon® pestle for 25 strokes. The homogenate is centrifuged at 4° C. at 1100× g for 10 minutes. The supernatant is collected and stored on ice while the pellets are resuspended in homogenization buffer and rehomogenized as described above. The homogenate is centrifuged at 1100× g for 10 minutes. The second supernatant is combined with the first supernatant and centrifuged at 35000× g for 1 hour at 4° C. The resulting membrane pellet is resuspended in homogenization buffer containing protease inhibitors at approximately 1 to 3 mg/mL, quick frozen in liquid nitrogen and stored as aliquots in a −80° C. freezer until use.
(§4) Method 2: Frozen cell pellets are lysed on ice in hypotonic buffer containing 50 mM Tris HCl, pH 7.5, 1 mM MgCl2, Roche Complete™ EDTA-free Protease Inhibitors and 25 units/mL DNAse I (Invitrogen). The cell suspension is disrupted using a glass Potter-Elvehjem homogenizer fitted with a Teflon® pestle for 20 to 25 strokes. The homogenate is centrifuged at 4° C. at 1800× g for 15 minutes. The supernatant is collected and stored on ice while the pellets are resuspended in homogenization buffer (without DNAse I) and rehomogenized as described above. The homogenate is centrifuged at 1800× g for 15 minutes. The second supernatant is combined with the first supernatant and centrifuged an additional time at 1800× g for 15 minutes. The overall supernatant is then centrifuged at 25000× g for 30 minutes at 4° C. The resulting membrane pellet is resuspended in homogenization buffer (without DNAse I) containing protease inhibitors at approximately 1 to 3 mg/mL and stored as aliquots in a −80° C. freezer until use.
The binding buffer contains 25 mM HEPES, pH 7.4, 2.5 mM CaCl2), 1 mM MgCl2, 0.1% (w/v) bacitracin, 0.003% (w/v) TWEEN®-20, and Roche Complete™ Protease Inhibitors without EDTA. […] Plates are sealed and mixed on a plate shaker (setting 6) for 1 minute and read with a PerkinElmer Trilux MicroBeta® scintillation counter after 2.5 to 12 hours of incubation/settling time at room temperature.
(§5) Data are analyzed using four-parameter (curve maximum, curve minimum, IC50, Hill slope) nonlinear regression routines (Genedata Screener, version 12.0.4, Genedata AG, Basal, Switzerland). […] Values for Ki are reported as the geometric mean, with error expressed as the standard error of the mean (SEM) and n is equal to the number of independent replicates (determined in assays performed on different days). […] SEM is only calculated when […] or greater. Means are expressed as geometric means with the standard error of the mean (SEM) and the number of replicates (n) indicated in parentheses.

The next assay concerns the target T2, human GcgR (Homo sapiens, UniProt P47871).
T2 construct: expressed in transfected cells; crude membranes
The assay is described as follows: [125I]-Glucagon binding, SPA with WGA beads, 0.1% bacitracin. Particulars: geometric mean, read-out: hGcgR Ki. How it is done:
as §1, §2, §3, §4
The human Geg receptor binding assays are performed using a Scintillation Proximity Assay (SPA) format with wheat germ agglutinin (WGA) beads (Perkin Elmer). The binding buffer contains 25 mM 4-(2-hydroxyethyl)-1-piperazineethanesulfonic acid (HEPES), pH 7.4, 2.5 mM CaCl2), 1 mM MgCl2, 0.1% (w/v) bacitracin (Research Products), 0.003% (w/v) Polyoxyethylenesorbitan monolaurate (TWEEN®-20), and Roche Complete™ Protease Inhibitors without EDTA. Peptides and Gcg are thawed and 3-fold serially diluted in 100% DMSO (10 point concentration response curves). Next, 5 μL serially diluted compound or DMSO is transferred into Corning® 3632 clear bottom assay plates containing 45 μL assay binding buffer or unlabeled Gcg control (non-specific binding or NSB, at 1 μM final). […] Plates are sealed and mixed on a plate shaker (setting 6) for 1 minute and read with a PerkinElmer Trilux MicroBeta® scintillation counter after 12 hours of incubation/settling time at room temperature.
as §5

Molecules are shown by their SMILES. *1 amine or outer side, *2 acyl side, *3 side chain or, on linkers, in order; H or OH if unused. Where a SMILES comes first, the peptide text is derived from it. Side-chain parts run from the residue outwards. [ ]: non-standard residue; d: D form. The star is where a group is joined. C20 diacid = O=C(O)CCCCCCCCCCCCCCCCCCC(=O)*; γGlu = O=C(O)[C@H](CCC(=O)[*:2])N[*:1]; AEEA = NCCOCCOCC(=O)O; Aib = CC(C)(N)C(=O)O

T2 sequence (P47871 26-477): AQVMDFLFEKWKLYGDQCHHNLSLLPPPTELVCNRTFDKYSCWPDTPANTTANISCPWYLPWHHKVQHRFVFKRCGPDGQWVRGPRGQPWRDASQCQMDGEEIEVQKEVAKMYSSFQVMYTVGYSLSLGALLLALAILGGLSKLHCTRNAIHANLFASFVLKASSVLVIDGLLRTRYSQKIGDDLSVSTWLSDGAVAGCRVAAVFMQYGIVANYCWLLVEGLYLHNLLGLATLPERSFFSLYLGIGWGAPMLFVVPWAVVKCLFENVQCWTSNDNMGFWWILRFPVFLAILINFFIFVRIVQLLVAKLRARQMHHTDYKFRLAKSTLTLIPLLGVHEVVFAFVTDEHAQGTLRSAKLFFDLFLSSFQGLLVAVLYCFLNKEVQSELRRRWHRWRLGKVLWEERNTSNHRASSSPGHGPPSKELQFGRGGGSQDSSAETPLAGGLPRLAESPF

With `CC[C@H](C)[C@H](NC(=O)[C@H](CCCN)NC(=O)[C@H](CC(=O)O)NC(=O)[C@H](CC(C)C)NC(=O)[C@](C)(CC(C)C)NC(=O)[C@@H](NC(=O)[C@H](CO)NC(=O)[C@H](Cc1ccc(O)cc1)NC(=O)[C@H](CC(=O)O)NC(=O)[C@H](CO)NC(=O)[C@@H](NC(=O)[C@H](Cc1ccccc1)NC(=O)[C@@H](NC(=O)CNC(=O)[C@H](CCC(=O)O)NC(=O)C(C)(C)NC(=O)[C@@H](N)Cc1ccc(O)cc1)[C@@H](C)O)[C@@H](C)CC)[C@@H](C)CC)C(=O)N[C@@H](Cc1c[nH]cn1)C(=O)N[C@@H](CCC(N)=O)C(=O)NC(C)(C)C(=O)N[C@@H](CC(=O)O)C(=O)N[C@@H](Cc1ccccc1)C(=O)N[C@H](C(=O)N[C@@H](CCC(=O)O)C(=O)N[C@@H](Cc1ccc(O)cc1)C(=O)N[C@@H](CCCCNC(=O)COCCOCCNC(=O)COCCOCCNC(=O)CC[C@H](NC(=O)CCCCCCCCCCCCCCCCCCC(=O)O)C(=O)O)C(=O)N[C@@H](CC(C)C)C(=O)N[C@@H](CCC(=O)O)C(=O)NCC(=O)NCC(=O)N1CCC[C@H]1C(=O)N[C@@H](CO)C(=O)N[C@@H](CO)C(=O)NCC(=O)N[C@@H](C)C(=O)N1CCC[C@H]1C(=O)N1CCC[C@H]1C(=O)N1CCC[C@H]1C(=O)N[C@@H](CO)C(N)=O)C(C)C` [Example 6], the values for the Ki on human GIPR and on human GcgR were 0.104 nM and 453 nM, respectively.

`CC[C@H](C)[C@H](NC(=O)[C@H](CCCN)NC(=O)[C@H](CC(=O)O)NC(=O)[C@H](CC(C)C)NC(=O)[C@](C)(CC(C)C)NC(=O)[C@@H](NC(=O)[C@H](CO)NC(=O)[C@H](Cc1ccc(O)cc1)NC(=O)[C@H](CC(=O)O)NC(=O)[C@H](CO)NC(=O)[C@@H](NC(=O)[C@H](Cc1ccccc1)NC(=O)[C@@H](NC(=O)CNC(=O)[C@H](CCC(=O)O)NC(=O)C(C)(C)NC(=O)[C@@H](N)Cc1ccc(O)cc1)[C@@H](C)O)[C@@H](C)CC)[C@@H](C)CC)C(=O)N[C@@H](Cc1c[nH]cn1)C(=O)N[C@@H](CCC(N)=O)C(=O)NC(C)(C)C(=O)N[C@@H](CCC(=O)O)C(=O)N[C@@H](Cc1ccccc1)C(=O)N[C@H](C(=O)N[C@H](CCC(=O)O)C(=O)N[C@@H](Cc1ccc(O)cc1)C(=O)N[C@@H](CCCCNC(=O)COCCOCCNC(=O)COCCOCCNC(=O)CC[C@H](NC(=O)CCCCCCCCCCCCCCCCC(=O)O)C(=O)O)C(=O)N[C@@H](CC(C)C)C(=O)N[C@@H](CCC(=O)O)C(=O)NCC(=O)NCC(=O)N1CCC[C@H]1C(=O)N[C@@H](CO)C(=O)N[C@@H](CO)C(=O)NCC(=O)N[C@@H](C)C(=O)N1CCC[C@H]1C(=O)N1CCC[C@H]1C(=O)N1CCC[C@H]1C(=O)N[C@@H](CO)C(N)=O)C(C)C` [Example 7]: the values for the Ki at human GIPR and on human GcgR were 0.193 nM and above 961 nM, respectively.

`CC[C@H](C)[C@H](NC(=O)[C@H](CO)NC(=O)[C@H](Cc1ccc(O)cc1)NC(=O)[C@H](CC(=O)O)NC(=O)[C@H](CO)NC(=O)[C@@H](NC(=O)[C@H](Cc1ccccc1)NC(=O)[C@@H](NC(=O)CNC(=O)[C@H](CCC(=O)O)NC(=O)C(C)(C)NC(=O)[C@@H](N)Cc1ccc(O)cc1)[C@@H](C)O)[C@@H](C)CC)C(=O)N[C@@H](CC(C)C)C(=O)N[C@@H](CC(C)C)C(=O)N[C@@H](CC(=O)O)C(=O)N[C@@H](CCCCN)C(=O)N[C@@H](CCCCNC(=O)COCCOCCNC(=O)COCCOCCNC(=O)CC[C@H](NC(=O)CCCCCCCCCCCCCCCCCCC(=O)O)C(=O)O)C(=O)N[C@@H](C)C(=O)N[C@@H](CCC(N)=O)C(=O)NC(C)(C)C(=O)N[C@@H](CC(=O)O)C(=O)N[C@@H](Cc1ccccc1)C(=O)N[C@H](C(=O)N[C@@H](CC(N)=O)C(=O)N[C@@H](Cc1c[nH]c2ccccc12)C(=O)N[C@@H](CC(C)C)C(=O)N[C@@H](CC(C)C)C(=O)N[C@@H](C)C(=O)N[C@@H](CCC(N)=O)C(=O)NCC(=O)N1CCC[C@H]1C(=O)N[C@@H](CO)C(=O)N[C@@H](CO)C(=O)NCC(=O)N[C@@H](C)C(=O)N1CCC[C@H]1C(=O)N1CCC[C@H]1C(=O)N1CCC[C@H]1C(=O)N[C@@H](CO)C(N)=O)C(C)C` [Example 8] (H-Y[Aib]EGTFISDYSILLDKK([AEEA-AEEA-γGlu-C20 diacid])AQ[Aib]DFVNWLLAQGPSSGAPPPS-NH2): the Ki at human GIPR was determined as 0.027 nM; on human GcgR it was 101 nM.

As for `CC[C@H](C)[C@H](NC(=O)[C@H](CO)NC(=O)[C@H](Cc1ccc(O)cc1)NC(=O)[C@H](CC(=O)O)NC(=O)[C@H](CO)NC(=O)[C@@H](NC(=O)[C@H](Cc1ccccc1)NC(=O)[C@@H](NC(=O)CNC(=O)[C@H](CCC(=O)O)NC(=O)[C@@H](C)NC(=O)[C@@H](N)Cc1ccc(O)cc1)[C@@H](C)O)[C@@H](C)CC)C(=O)N[C@@H](CC(C)C)C(=O)N[C@@H](CC(C)C)C(=O)N[C@@H](CC(=O)O)C(=O)N[C@@H](CCCCN)C(=O)N[C@@H](CCCCNC(=O)COCCOCCNC(=O)COCCOCCNC(=O)CC[C@H](NC(=O)CCCCCCCCCCCCCCCCCCC(=O)O)C(=O)O)C(=O)N[C@@H](Cc1c[nH]cn1)C(=O)N[C@@H](CCC(N)=O)C(=O)NC(C)(C)C(=O)N[C@@H](CC(=O)O)C(=O)N[C@@H](Cc1ccccc1)C(=O)N[C@H](C(=O)N[C@@H](CC(N)=O)C(=O)N[C@@H](Cc1c[nH]c2ccccc12)C(=O)N[C@@H](CC(C)C)C(=O)N[C@@H](CC(C)C)C(=O)N[C@@H](C)C(=O)N[C@@H](CCC(N)=O)C(=O)NCC(=O)N1CCC[C@H]1C(=O)N[C@@H](CO)C(=O)N[C@@H](CO)C(=O)NCC(=O)N[C@@H](C)C(=O)N1CCC[C@H]1C(=O)N1CCC[C@H]1C(=O)N1CCC[C@H]1C(=O)N[C@@H](CO)C(N)=O)C(C)C` [Example 9] (H-Y[dA]EGTFISDYSILLDKK([AEEA-AEEA-γGlu-C20 diacid])HQ[Aib]DFVNWLLAQGPSSGAPPPS-NH2), the Ki on human GIPR was 0.11 nM; on human GcgR it was above 230 nM.

A word on the Ki: it is the equilibrium dissociation constant of an inhibitor or competing ligand from its target.

For the origin of these results see patent US12723063B2, “GIPR-agonist compounds” (Eli Lilly and Company, priority 2019, dated 2026).
